Assay results from PubChem BioAssay (NCI).
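A five-concentration, 48-hour dose response in 96-well plates underlies each endpoint, interpolated linearly between surrounding concentrations. At the TGI there is no net growth.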

Columns and labels:
Assay in all cases: growth of human tumour cells (NCI), 48 h
[1] = tested on: SF-295 CNS
[2] = tested on: SF-539 CNS
[3] = tested on: SNB-75 CNS
[4] = tested on: LXFL 529 NSCLC
[5] = tested on: A549 NSCLC
[6] = tested on: CAKI-1 renal
[7] = tested on: M19-MEL melanoma
[8] = tested on: DMS 273 small cell lung
[9] = tested on: HOP-62 NSCLC
[10] = tested on: UACC-257 melanoma
[11] = tested on: RPMI-8226 leukemia
[12] = tested on: RXF 393 renal
[13] = tested on: IGROV1 ovarian
[14] = tested on: CCRF-CEM leukemia
[15] = tested on: HCT-116 colon
[16] = tested on: COLO 205 colon
[17] = tested on: EKVX NSCLC
[18] = tested on: KM12 colon
[19] = tested on: OVCAR-4 ovarian
[20] = tested on: NCI-H226 lung
[21] = tested on: NCI-H522 lung
[22] = tested on: DLD-1 colon
[23] = tested on: HOP-92 NSCLC
[24] = tested on: M14 melanoma
[25] = tested on: 786-0 renal
[26] = tested on: UO-31 renal
[27] = tested on: HCC-2998 colon
[28] = tested on: ACHN renal
[29] = tested on: K-562 leukemia
[30] = tested on: OVCAR-3 ovarian
[31] = tested on: SK-MEL-2 melanoma
[32] = tested on: SK-MEL-5 melanoma
[33] = tested on: TK-10 renal
[34] = tested on: MOLT-4 leukemia
[35] = tested on: SNB-78 CNS
[36] = tested on: SF-268 CNS
[37] = tested on: HT29 colon
[38] = tested on: HCT-15 colon
[39] = tested on: OVCAR-5 ovarian
[40] = tested on: A498 renal
[41] = tested on: NCI-H23 lung
[42] = tested on: SK-OV-3 ovarian
[43] = tested on: RXF-631 renal
[44] = tested on: OVCAR-8 ovarian
[45] = tested on: SNB-19 CNS
[46] = tested on: MALME-3M melanoma
[47] = tested on: U251 CNS
[48] = tested on: KM20L2 colon
[49] = tested on: LOX IMVI melanoma
[50] = tested on: DMS 114 small cell lung
[51] = tested on: SW-620 colon
[52] = tested on: SN12C renal
[53] = tested on: HOP-18 NSCLC
[54] = tested on: NCI-H460 lung
[55] = tested on: HL-60(TB) leukemia
[56] = tested on: SK-MEL-28 melanoma
[57] = tested on: XF 498 CNS
[58] = tested on: UACC-62 melanoma
[59] = tested on: SR leukemia

Measured: TGI

O=C1Cc2c([nH]c3ccccc23)-c2cc(Br)ccc2N1
not listed: [57] | [58] | [59]
> 100 µM: all other assays above

Cc1ccc(/C=C2\CCCC(C(NO)c3ccc(C)cc3)C2=NO)cc1 (configuration not stated)
49.8 µM: [14]
48.8 µM: [11]
38.8 µM: [52]
85.4 µM: [24]
62 µM: [27]
76.1 µM: [21]
40.1 µM: [55]
73.2 µM: [41]
43.7 µM: [30]
98.2 µM: [3]
62.6 µM: [54]
71.9 µM: [12]
66.6 µM: [36]
42.5 µM: [48]
45.1 µM: [18]
37.9 µM: [37]
50.2 µM: [32]
93.5 µM: [43]
45.4 µM: [19]
67.7 µM: [56]
38.5 µM: [16]
42.6 µM: [34]
not listed: [1] | [20] | [23] | [39] | [49] | [59]
> 100 µM: all other assays above

CNC1CC(n2cc(C)c(=O)[nH]c2=O)OC1CO (configuration not stated)
not listed: [1] | [5] | [10] | [12] | [17] | [18] | [30] | [32] | [33] | [35] | [37] | [38] | [39] | [44] | [45] | [47] | [48] | [49] | [51] | [53] | [54]
> 100 µM: all other assays above
